The results in this text go back to patent US20140123342A1, “Regulation of Stomatal Apertures by Apyrases and Extracellular Nucleotides” (BOARD OF REGENTS, THE UNIVERSITY OF TEXAS SYSTEM, priority 2011, published 2014).

What all share (type): cell-based, Arabidopsis thaliana
Assay [1] concerns guard cells of x-luc1 and x-luc9 ecto-luciferase lines. In words: Ecto-luciferase luminescence imaging of extracellular ATP in epidermal peels. The text has this: Ecto-luciferase Construct and Plant Transformation: The nucleotide sequence for the 24 amino acid, cleavable signal peptide from the Brassica pollen coat protein, S-locus cysteine-rich protein (SCR13; AF195626) was used to target luciferase for secretion (Schopfer et al., 1999). The signal peptide was incorporated at the N-terminus of the luciferase gene by PCR and the SCR13 signal peptide modified luciferase PCR product was then ligated into the binary vector pLBJ21. This construct was then transformed into Agrobacterium tumefaciens strain GV3101 (pMP90) and then transformed into Arabidopsis plants (Col-0) using the floral dipping method (Clough and Bent, 1998). Transgenic plants were selected by planting on solidified Murashige and Skoog (MS) medium (4.3 g/L Murashige and Skoog salts (Sigma), 0.5% (w/v) MES, and 1.0% (w/v) agar, raised to pH 5.7 with 5 M KOH) containing 50 μg/mL kanamycin. Segregation of T3 generation on kanamycin plates was analysed in order to obtain homozygous lines. Plants showing kanamycin resistance were checked for luciferase activity by growing transgenic plants in MS medium for 10 days and then transferring the whole seedlings into test tubes. Luminescence measurements were performed by placing the test tubes in the light-tight housing of the luminometer reader (Dynatech). Experimental solutions with luciferin substrate with and without 1 mM ATP were injected by an automatic injector, and after 3 seconds counting started at 0.2 second time intervals.
Imaging of Luminescence in Ecto-luciferase Plants: Ecto-luciferase seeds were surface-sterilized, stratified in the dark in 4° C. for at least three days and then planted directly on a cellophane membrane placed upon solidified MS with 1.0% (w/v) agar. Planted plates were placed upright in a culture chamber and grown at 23° C. under 24-h fluorescent light for 7 days. Plates were then reoriented so that the solidified MS medium was at the bottom of the plate and the seedling was able to grow up into the empty space of the petri dish. Seedlings were then allowed to mature for up to 4 weeks under identical temperature and light settings. For “dark” studies petri dishes of 3-4 week old plants were placed in a dark chamber for 24 hours prior to use in the studies.
Mature basal leaves were excised from x-luc1 and x-luc9 plants 3-4 weeks old. Peels were taken and then immediately floated with the abaxial side up in 40 μL, of Arabidopsis leaf buffer on a microscope slide and the chemical being tested in either light or dark conditions depending on the experimental setup. The placing of the peels within their respective solution was considered time zero. Peels were treated for a minimum of 5 minutes before luciferin and flash buffer were added to the solution. […] Luminescence was integrated over 120 seconds, High Gain, Read Out set to slow, using 4×4 pixel binning with Cosmic Suppression on, Background Correction off, and Flatfield Correction off with the filter set to Photo.
All luminescence analysis was conducted using the indiGO Analysis Software (version 2.0.0.26). All images consisted of a photographic image in grayscale with an overlaid luminescence image in pseudo color. […]

The test system of assay [2] is stomata (guard cells) in epidermal peels. The assay can be described thus: Stomatal aperture closure studies, epidermal peels in the light. The method, then:
(§1) Stomatal Aperture Studies: Arabidopsis thaliana ecotypes Columbia (Col-0) and Wassilewskija (WS) were used as wild types in this study. Col-0, nia1nia2, atrbohD/F, R2-4A and WS plants were all grown on autoclaved Metro-Mix 200 soil at 22° C. under continuous light. The mutant seeds nia1nia2 nia2-5; CS 2356; Col-0 background) were obtained from Dr. N. M. Crawford (University of California at San Diego) and the mutant seeds atrbohD/F (Col-0 background) were obtained from Dr. J. M. Kwak (University of Maryland). The RNAi mutant apyrase line (R2-4A) is in WS background, so WS ecotype was used as the control wild type for these studies. Leaves from 2 to 3 week old Col-0 plants, or R2-4A and WS plants treated with 4 μM estradiol for 1 week after development of mature basal leaves were used for peel and whole leaf studies. Plants were placed in the dark and watered 24 h before an study. For opening studies, plants were used immediately after 24 h dark treatment and all treatments were done in the dark except for the light treated leaves or peels, thus the control stomata are dark controls. For closure studies, plants were placed in the light 3 h before an study to induce stomatal opening and all treatments were done in the light, thus the control stomata are light controls. For peel studies, epidermal peels were made from the underside of the leaf and treatments were applied to the peels for 1 h. For whole leaf studies, leaves were removed and treatments were applied for 2 h. For each treatment, about 3 or 4 peels collected from different leaves or 3 or 4 different leaves of at least two different plants were floated with the abaxial side up in petri dishes on 3 mL of Arabidopsis leaf buffer consisting of 10 mM KCl, 25 mM MES pH 6.15 (Melotto et al., 2006) and the chemical being tested. For whole leaf studies peels were collected after the treatment.
(§2) For studies testing the effects of ATPγS, ADPγS, AMPS, RB2, and PPADS (Sigma, St. Louis, Mo., USA) 20 mM stocks were made by dissolving the compounds in de-ionized water. For studies testing the effects of apyrase inhibitors, 7.5 mg/mL of NGXT191 and of inhibitor #13 (Windsor et al., 2002) was dissolved in dimethyl sulfoxide (DMSO) and then applied at a dilution of […] for a final concentration of 0.1% DMSO. ABA (Sigma, St. Louis, Mo., USA) was dissolved in ethanol in 10 mM stocks and then applied at a dilution of 1:1000. The stocks were stored at −20° C. while not in use. The production of the anti-AtAPY1 antibodies used is described by Steinebrunner et al. (2003). The crude immune and pre-immune sera were purified using protein A-Sepharose following the protocol described by Martin (1982) with the slight modification that the buffers used were azide-free. The protein-A purified sera were both used at a 1:1000 dilution in leaf stomatal aperture studies. The concentration of the immune and pre-immune sera, determined by Bradford assay (Bio-Rad), was 10.2 μg/mL and 7.7 μg/mL, respectively.
(§3) After treatment, photos of stomata were taken using a light microscope at 20×. Stomatal aperture width was measured using the image processing software ImageJ. Typically, photos were taken of 70 to 90 stomata per treatment of which only 50 stomata were measured for each treatment. For each treatment the ratio of closed stomata (width of 0) to open stomata was determined for all stomata imaged and this ratio was maintained in the 50 stomata that were measured for each treatment. Data shown uses apertures determined as width/length, however data in all studies also obtained as width only and generally width/length and width only data are in agreement with each other. Statistical significance of the measurements for the treatments was determined using the Student's t test in Microsoft Excel.

Assay [3] relates to stomata (guard cells) in whole leaves. The assay can be described thus: Stomatal aperture closure studies, whole leaves in the light. The note with it: for effect on ABA-induced stomatal closure / effect on ATPγS-induced stomatal closure: co-incubation. The method, then:
as §1, §2, §3

The subject of assay [4] is stomata (guard cells) in epidermal peels. The assay can be described thus: Stomatal aperture opening studies, epidermal peels in the dark. The method, then:
as §1, §2, §3

For assay [5], the system named is H2O2 in guard cells. The assay can be described thus: Detection and quantification of H2O2 (H2DCFDA fluorescence). The settings on record: co-incubation (data not shown). The method, then:
Detection and Quantification of H2O2 and NO: Col-0 plants were grown on soil for 2 to 4 weeks under continuous light at 21° C. Plants were placed in the dark for 24 h to ensure closure and then transferred to the light for 1 h. After 1 h in the light, mature basal leaves were excised and blended in a Waring blender on the low setting for approximately 10 s to isolate epidermal tissues, and the tissues were placed in 3 mL of 30 mM KCl, 10 mM Mes-KOH, pH 6.16 buffer in light for 2 h (Pei et al., 2000; Murata et al., 2001). DAF-2 DA and H2DCFDA were dissolved in DMSO to produce 5 mM and 10 mM stock solutions, respectively, and these were stored at −20° C. in 30 μL, aliquots. Fifty μM H2DCFDA or 15 μM DAF-2 DA was added to the medium in the dark, and after 30 min, 10 μM ABA, 200 μM ATPγS, or buffer (ATP control) was also added to the medium in the dark for 30 min. Peels were then rinsed by decanting the treatment solution and adding 3 mL fresh leaf buffer to the peels. Peels were rinsed twice as described. A peel from each of the three treatments (ABA, ATPγS and buffer) were placed on the same microscope slide and observed sequentially. A second study was staggered 30 to 45 min after the first by loading the H2DCFDA or DAF-2 DA dye to new peels 30 to 45 min after the first round of dye was added. Confocal laser scanning microscopy (CLSM) was performed with a Leica SP2 AOBS confocal microscope (Leica Microsystems, Bannockburn, Ill., USA). Laser power was set at 15%, with an excitation of 488 nm and an emission of 525 nm. A series of 0.5 μm optical sections with average intensity projection along the z axis were collected and made into one 2D image with greater focal depth. All images were obtained with the same software scanning settings including detector gain and laser intensity settings.

Assay [6] relates to stomata (guard cells) in whole leaves. The assay can be described thus: Stomatal aperture opening studies, whole leaves in the dark. As to the method:
as §1
as §2, with “The crude immune and pre-immune sera were purified using protein A-Sepharose following the protocol described by Martin (1982) with the slight modification that the buffers used were azide-free. The protein-A purified sera were both used at a 1:1000 dilution in leaf stomatal aperture studies.” left out
as §3

Setting [7] is: co-incubation, epidermal peel studies (data not shown).
Setting [8] is: co-incubation, 30 μM, leaves (data not shown).
[9] abbreviates: 30 μM, whole leaf studies (not shown).

The structures appear in SMILES notation.

Turning to `Nc1ncnc2c1ncn2[C@@H]1O[C@H](COP(=O)(O)OP(O)(O)=S)[C@@H](O)[C@H]1O` [ADPβS], the “ecto-luciferase luminescence of stomata, average” value in assay [1] (200 μM, 5 min, open stomata (data not shown)) is recorded as 2.75 cps. In addition, the “threshold for nucleotide-induced stomatal closure” value in assay [2] (epidermal peel studies, light) was “same threshold”; in assay [3] (whole leaf studies, compared with peel studies (150 to 200 μM; not shown)), “the same as found in the peel studies”.

On to `Nc1ncnc2c1ncn2[C@@H]1O[C@H](COP(O)(O)=S)[C@@H](O)[C@H]1O` [AMPS], for which the “effect on stomatal aperture” value is “no effect on stomatal aperture” in assay [4] (15 μM, darkness, 1 h); “neither 15 μM nor 200 μM AMPS has any effect” in assay [2] (200 μM, dose-response tests, summary statement); “no effect on stomatal aperture” in assay [2] (250 μM, epidermal peels, light, 1 h).

On to `Nc1ncnc2c1ncn2[C@@H]1O[C@H](COP(=O)(O)OP(=O)(O)OP(=O)(O)O)[C@@H](O)[C@H]1O` [ATP], for which the “ecto-luciferase luminescence, average” value in assay [1] (1 mM, 5 min or longer, x-luc1 and x-luc9 lines, centered around guard cells) is 4.75 counts per second (cps). For the same compound, in assay [1] (1 mM, pavement cells of the epidermis), the “ecto-luciferase luminescence of pavement cells, average” value came to 1.35 cps.

Take `CC(=O)N[C@@H](CS)C(=O)O` [NAC, N-acetyl-L-cysteine]: in assay [5], the “effect on ABA- and ATPγS-induced H2DCFDA fluorescence” value is given as “blocked”.

As for `Cc1cccc(NS(=O)(=O)c2ccc(-c3ccccc3)cc2)c1` [NGXT 191, N-(3-methylphenyl)-4-biphenylsulfonamide], the “effect on stomatal aperture” value in assay [2] (7.5 μg/mL, epidermal peels, light, 1 h) is on record as “induced stomatal closure”.

For the compound `Cc1nc(N=Nc2ccc(S(=O)(=O)O)cc2S(=O)(=O)O)c(COP(=O)(O)O)c(C=O)c1O` [PPADS, pyridoxalphosphate-6-azo-phenyl-2′,4′-disulphonic acid], the “effects in opening studies compared with epidermal peels” value in assay [6] (whole leaves (data not shown), alone, on ATPγS-induced and on light-induced opening) is given as “the same effects”. For the same compound, the “effect on stomatal aperture” value in assay [4] (100 μM alone, opening studies) is reported as “no effect alone”; in assay [2] (100 μM alone, epidermal peels, light) it was “no effect by itself”; in assay [3] (100 μM alone, leaves, light) it was “no effect alone”. Besides, the “effect on light-induced stomatal opening” value in assay [4] (co-incubation, 100 μM) was “partially blocked”. The “effect on ATPγS-induced stomatal opening” value in assay [4] (co-incubation, 100 μM, with 15 μM ATPγS) was “blocked”. Further, the “effect on NGXT 191-induced stomatal closure” value in assay [2] (co-incubation, 100 μM, with 7.5 μg/mL NGXT 191, epidermal peels) is reported as “blocked”. The “effect on ABA-induced stomatal closure” value in assay [2] (setting [7]) is recorded as “partially block”; in assay [3] (100 μM, with 10 μM ABA, leaves), “partially blocked”. Moreover, the “effect on ATPγS-induced stomatal closure” value in assay [2] (setting [7]) was “block”; in assay [3] (100 μM, with 200 μM ATPγS, leaves), “blocked”.

Consider `Nc1c(S(=O)(=O)O)cc(Nc2ccc(Nc3nc(Cl)nc(Nc4cccc(S(=O)(=O)O)c4)n3)c(S(=O)(=O)O)c2)c2c1C(=O)c1ccccc1C2=O` [RB2, reactive blue 2], for which the “effect on stomatal aperture” value in assay [6] (30 μM alone, opening studies, leaves) was “no effect by itself”. Besides, in assay [6] (setting [8]), the “effect on ATPγS-induced stomatal opening” value is “block” and the “effect on light-induced stomatal opening” value was “partially block”. Besides, the “effect on stomatal aperture” value in assay [3] (30 μM alone, closure studies, leaves) is listed as “no effect alone”. Moreover, in assay [3] (setting [9]), the “effect on ABA-induced stomatal closure” value is on record as “partially block” and the “effect on ATPγS-induced stomatal closure” value is recorded as “block”.

With `O=C(Nc1cccc([N+](=O)[O-])c1)c1cccc(S(=O)(=O)Nc2ccc(Br)cc2)c1` [apyrase inhibitor #13, 3-{[(4-bromophenyl)amino]sulfonyl}-N-(3-nitrophenyl)benzamide], in assay [3] (7.5 μg/mL, whole leaves (data not shown)), the “effect on stomatal aperture” value is on record as “caused stomatal closure”.
